Assays:
Assay type in all cases: in vivo
[1] = tested on: barnyardgrass (Echinochloa crus-galli); experiment: Test A greenhouse herbicide test, pre- and postemergence
Summary of the method: (§1)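 Seeds in loam–sand blend received a preemergence directed soil spray; plants at 2–10 cm, one- to two-leaf stage, received postemergence sprays. Compounds in a non-phytotoxic solvent with surfactant. After about 10 d in a greenhouse, injury rated visually versus untreated controls on a 0–100 scale (100 = complete control).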

[2] = tested on: corn (Zea mays); experiment: as above; conditions: Postemergence
Summary of the method: as §1

[3] = tested on: foxtail, giant (giant foxtail, Setaria faberii); experiment: as above
Summary of the method: as §1

[4] = tested on: kochia (Kochia scoparia); experiment: as above
Summary of the method: as §1

[5] = tested on: pigweed (Amaranthus retroflexus); experiment: as above
Summary of the method: as §1

[6] = tested on: ragweed (common ragweed, Ambrosia elatior); experiment: as above
Summary of the method: as §1

[7] = tested on: ryegrass, Italian (Italian ryegrass, Lolium multiflorum); experiment: as above
Summary of the method: as §1

[8] = tested on: wheat (Triticum aestivum); experiment: as above; conditions: Postemergence
Summary of the method: as §1

[9] = tested on: blackgrass (Alopecurus myosuroides); experiment: Test A greenhouse herbicide test, postemergence
Summary of the method: (§2)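 Visual injury score, 0 (no effect) to 100 (complete control), versus untreated controls roughly 10 d after postemergence spray; plants at one- to two-leaf stage, 2 to 10 cm tall, in loam soil and sand, kept in greenhouse.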

[10] = tested on: galium (catchweed bedstraw, Galium aparine); experiment: Test A greenhouse herbicide test, postemergence
Summary of the method: as §2

[11] = tested on: kochia (Kochia scoparia); experiment: Test C greenhouse herbicide test, postemergence
Summary of the method: (§3)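 Seedlings are raised in pots of peat moss–vermiculite medium with starter nutrients, then receive postemergence test chemical at the 1- to 4-leaf stage. They are kept in the greenhouse 13 to 15 d and scored visually versus controls, 0 meaning no effect and 100 complete control.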

[12] = tested on: oat, wild (wild oat, Avena fatua); experiment: Test C greenhouse herbicide test, postemergence
Summary of the method: as §3

[13] = Postemergence, 125 g ai/ha, 0 to 100 scale where 0 is no effect and 100 is complete control
[14] = Preemergence, 125 g ai/ha, 0 to 100 scale where 0 is no effect and 100 is complete control
[15] = Preemergence, 500 g ai/ha, 0 to 100 scale where 0 is no effect and 100 is complete control
[16] = 125 g ai/ha, 0 to 100 scale where 0 is no effect and 100 is complete control
[17] = 500 g ai/ha, visual rating after approx. 10 d, 0 to 100 scale (0 no effect, 100 complete control)
[18] = Postemergence, 500 g ai/ha, visual rating after approx. 10 d, 0 to 100 scale (0 no effect, 100 complete control)
[19] = Postemergence, 31 g ai/ha, scale 0 to 100 (0 no effect, 100 complete control)
[20] = Postemergence, 125 g ai/ha, scale 0 to 100, 0 is no effect, 100 is complete control
[21] = Postemergence, 250 g ai/ha, scale 0 to 100, 0 no effect, 100 complete control, 13 to 15 d
[22] = Postemergence, 125 g ai/ha, 0 to 100 scale, 0 no effect, 100 complete control
[23] = Preemergence, 125 g ai/ha, visual injury rating, 0 to 100 scale (0 no effect, 100 complete control), approx. 10 d
[24] = 125 g ai/ha, 0 to 100 scale, 0 no effect, 100 complete control
[25] = Postemergence, 62 g ai/ha, 0 to 100 scale (0 no effect, 100 complete control)
[26] = Postemergence, 250 g ai/ha, scale 0 to 100, 0 is no effect, 100 is complete control
[27] = postemergence, 125 g ai/ha, scale 0 to 100, 0 no effect, 100 complete control

## Cc1nn(C)c(=O)c(-c2c(C)sc3ccc(Cl)cc23)c1O [Compound 104]
[1]; [13]
  Plant response rating, Barnyardgrass: 70
[1]; Postemergence, 500 g ai/ha, 0 to 100 scale, 0 is no effect, 100 is complete control
  Barnyardgrass plant response rating: 100
[1]; [14]
  Barnyardgrass plant response rating: 80
[1]; [15]
  Plant response rating, Barnyardgrass: 100
[2]; [16]
  Plant response rating, Corn: 0
[2]; [17]
  Plant response rating, Corn: 20
[3]; [13]
  Plant response rating, Foxtail, Giant: 80
[3]; [18]
  Plant response rating, Foxtail, Giant: 100
[3]; [14]
  Foxtail, Giant plant response rating: 70
[3]; [15]
  Plant response rating, Foxtail, Giant: 100
[4]; [13]
  Plant response rating, Kochia: 90
[4]; [18]
  Plant response rating, Kochia: 100
[4]; [14]
  Kochia plant response rating: 100
[4]; [15]
  Plant response rating, Kochia: 100
[5]; [13]
  Plant response rating, Pigweed: 90
[5]; [18]
  Plant response rating, Pigweed: 90
[5]; [14]
  Pigweed plant response rating: 100
[5]; [15]
  Plant response rating, Pigweed: 100
[6]; [13]
  Plant response rating, Ragweed: 100
[6]; [18]
  Plant response rating, Ragweed: 100
[6]; [14]
  Ragweed plant response rating: 90
[6]; [15]
  Plant response rating, Ragweed: 100
[7]; [13]
  Plant response rating, Ryegrass, Italian: 100
[7]; [18]
  Plant response rating, Ryegrass, Italian: 100
[7]; [14]
  Ryegrass, Italian plant response rating: 100
[7]; [15]
  Plant response rating, Ryegrass, Italian: 100
[8]; [16]
  Plant response rating, Wheat: 20
[8]; [17]
  Plant response rating, Wheat: 20
[9]; [16]
  Plant response rating, Blackgrass: 90
[9]; 500 g ai/ha, 0 to 100 scale, 0 is no effect, 100 is complete control
  Blackgrass plant response rating: 90
[10]; [16]
  Plant response rating, Galium: 100
[10]; [17]
  Plant response rating, Galium: 100
[11]; [19]
  Plant response rating, Kochia: 95
[11]; [20]
  Plant response rating, Kochia: 95
[11]; [21]
  Plant response rating, Kochia: 100
[12]; [19]
  Plant response rating, Oat, Wild: 80
[12]; [20]
  Plant response rating, Oat, Wild: 90
[12]; [21]
  Plant response rating, Oat, Wild: 90

## CC(=O)Oc1c(C)nn(C)c(=O)c1-c1c([N+](=O)[O-])ccc2ccccc12 [Compound 164]
[1]; [22]
  Plant response rating, Barnyardgrass: 20
[1]; [18]
  Plant response rating, Barnyardgrass: 20
[1]; [23]
  Plant response rating, Barnyardgrass: 10
[1]; [15]
  Plant response rating, Barnyardgrass: 20
[2]; [24]
  Plant response rating, Corn: 0
[2]; [17]
  Plant response rating, Corn: 20
[3]; [22]
  Plant response rating, Foxtail, Giant: 20
[3]; [18]
  Plant response rating, Foxtail, Giant: 30
[3]; [23]
  Plant response rating, Foxtail, Giant: 10
[3]; [15]
  Plant response rating, Foxtail, Giant: 40
[4]; [22]
  Plant response rating, Kochia: 60
[4]; [18]
  Plant response rating, Kochia: 90
[4]; [23]
  Plant response rating, Kochia: 60
[4]; [15]
  Plant response rating, Kochia: 100
[5]; [22]
  Plant response rating, Pigweed: 80
[5]; [18]
  Plant response rating, Pigweed: 80
[5]; [23]
  Plant response rating, Pigweed: 80
[5]; [15]
  Plant response rating, Pigweed: 100
[6]; [22]
  Plant response rating, Ragweed: 70
[6]; [18]
  Plant response rating, Ragweed: 100
[6]; [23]
  Plant response rating, Ragweed: 50
[6]; [15]
  Plant response rating, Ragweed: 90
[7]; [22]
  Plant response rating, Ryegrass, Italian: 70
[7]; [18]
  Plant response rating, Ryegrass, Italian: 90
[7]; [23]
  Plant response rating, Ryegrass, Italian: 60
[7]; [15]
  Plant response rating, Ryegrass, Italian: 100
[8]; [24]
  Plant response rating, Wheat: 0
[8]; [17]
  Plant response rating, Wheat: 0
[9]; [24]
  Plant response rating, Blackgrass: 20
[9]; [17]
  Plant response rating, Blackgrass: 40
[10]; [24]
  Plant response rating, Galium: 80
[10]; [17]
  Plant response rating, Galium: 100
[11]; [19]
  Plant response rating, Kochia: 60
[11]; [25]
  Kochia plant response rating: 85
[11]; [26]
  Plant response rating, Kochia: 95
[11]; [27]
  Kochia plant response rating: 90
[12]; [19]
  Plant response rating, Oat, Wild: 35
[12]; [25]
  Oat, Wild plant response rating: 45
[12]; [26]
  Plant response rating, Oat, Wild: 80
[12]; [27]
  Oat, Wild plant response rating: 70

## Cc1nn(C)c(=O)c(-c2cc(F)cc3ccccc23)c1OS(C)(=O)=O [Compound 115]
[1]; [13]
  Plant response rating, Barnyardgrass: 20
[1]; [18]
  Plant response rating, Barnyardgrass: 90
[1]; [14]
  Barnyardgrass plant response rating: 10
[1]; [15]
  Plant response rating, Barnyardgrass: 50
[2]; [16]
  Plant response rating, Corn: 0
[2]; [17]
  Plant response rating, Corn: 20
[3]; [13]
  Plant response rating, Foxtail, Giant: 20
[3]; [18]
  Plant response rating, Foxtail, Giant: 90
[3]; [14]
  Foxtail, Giant plant response rating: 30
[3]; [15]
  Plant response rating, Foxtail, Giant: 50
[4]; [13]
  Plant response rating, Kochia: 70
[4]; [18]
  Plant response rating, Kochia: 90
[4]; [14]
  Kochia plant response rating: 30
[4]; [15]
  Plant response rating, Kochia: 90
[5]; [13]
  Plant response rating, Pigweed: 70
[5]; [18]
  Plant response rating, Pigweed: 90
[5]; [14]
  Pigweed plant response rating: 70
[5]; [15]
  Plant response rating, Pigweed: 100
[6]; [13]
  Plant response rating, Ragweed: 80
[6]; [18]
  Plant response rating, Ragweed: 100
[6]; [14]
  Ragweed plant response rating: 40
[6]; [15]
  Plant response rating, Ragweed: 90
[7]; [13]
  Plant response rating, Ryegrass, Italian: 100
[7]; [18]
  Plant response rating, Ryegrass, Italian: 100
[7]; [14]
  Ryegrass, Italian plant response rating: 100
[7]; [15]
  Plant response rating, Ryegrass, Italian: 100
[8]; [16]
  Plant response rating, Wheat: 20
[8]; [17]
  Plant response rating, Wheat: 30
[9]; [16]
  Plant response rating, Blackgrass: 20
[9]; [17]
  Plant response rating, Blackgrass: 70
[10]; [16]
  Plant response rating, Galium: 80
[10]; [17]
  Plant response rating, Galium: 100
[11]; [19]
  Plant response rating, Kochia: 70
[11]; [20]
  Plant response rating, Kochia: 90
[11]; [21]
  Plant response rating, Kochia: 90
[12]; [19]
  Plant response rating, Oat, Wild: 55
[12]; [20]
  Plant response rating, Oat, Wild: 80
[12]; [21]
  Plant response rating, Oat, Wild: 90
